From US9029370B2, “Substituted benzamide derivatives” (Hoffmann-La Roche Inc., priority 2011, dated 2015)
Structures can show the parent of a compound that is named as a salt.

Columns and labels:
rat TAAR1 = rat TAAR1 (Rattus norvegicus (Rat), UniProt Q923Y9); test: Radioligand binding assay on rat TAAR1; conditions: for Ki: rat TAAR1, HEK-293 membranes, second value of the pair (line below), read-out: Ki (μM) mouse/rat
Protocol: (§1) For the construction of expression plasmids the coding sequences of human, rat and mouse TAAR 1 were amplified from genomic DNA essentially as described by Lindemann et al.. The Expand High Fidelity PCR System (Roche Diagnostics) was used with 1.5 mM Mg^2+ and purified PCR products were cloned into pCR2.1-TOPO cloning vector (Invitrogen) following the instructions of the manufacturer. PCR products were subcloned into the pIRESneo2 vector (BD Clontech, Palo Alto, Calif.), and expression vectors were sequence verified before introduction in cell lines.
(§2) HEK293 cells (ATCC # CRL-1573) were cultured essentially as described by Lindemann et al. (2005). For the generation of stably transfected cell lines HEK293 cells were transfected with the pIRESneo2 expression plasmids containing the TAAR coding sequences (described above) with Lipofectamine 2000 (Invitrogen) according to the instructions of the manufacturer, and 24 hrs post transfection the culture medium was supplemented with 1 mg/ml G418 (Sigma, Buchs, Switzerland). After a culture period of about 10 d clones were isolated, expanded and tested for responsiveness to trace amines (all compounds purchased from Sigma) with the cAMP Biotrak Enzyme immunoassay (EIA) System (Amersham) following the non-acetylation EIA procedure provided by the manufacturer.
Radioligand Binding Assay on Rat TAAR1
(§3) Membrane Preparation and Radioligand Binding.
(§4) HEK-293 cells stably expressing rat TAAR1 were maintained at 37° C. and 5% CO2 in DMEM high glucose medium, containing fetal calf serum (10%, heat inactivated for 30 min at 56° C.), penicillin/streptomycin (1%), and 375 μg/ml geneticin (Gibco). Cells were released from culture flasks using trypsin/EDTA, harvested, washed twice with ice-cold PBS (without Ca^2+ and Mg^2+), pelleted at 1′000 rpm for 5 min at 4° C., frozen and stored at −80° C. […] The homogenate was centrifuged at 48′000×g for 30 min at 4° C. Subsequently, the supernatant was removed and discarded, and the pellet resuspended in 20 ml HEPES-NaOH (20 mM, pH 7.4) containing 0.1 mM EDTA using the Polytron (20 s at 14′000 rpm). This procedure was repeated and the final pellet resuspended in HEPES-NaOH containing 0.1 mM EDTA and homogenized using the Polytron. Typically, aliquots of 2 ml membrane portions were stored at −80° C. With each new membrane batch the dissociation constant (Kd) was determined via a saturation curve. […] Nonspecific binding was defined as the amount of ^3[H]-(S)-4-[(ethyl-phenyl-amino)-methyl]-4,5-dihydro-oxazol-2-ylamine bound in the presence of 10 μM unlabeled ligand. All compounds were tested at a broad range of concentrations (10 pM to 10 μM) in duplicates. […] The 96 deep well plates were incubated for 1 hr at 4° C. Incubations were terminated by rapid filtration through Unifilter-96 plates (Packard Instrument Company) and glass filters GF/C (Perkin Elmer) presoaked for 1 hr in polyethylenimine (0.3%) and washed 3 times with 1 ml of cold binding buffer. After addition of 45 μl of Microscint 40 (PerkinElmer) the Unifilter-96 plate was sealed and after 1 hr the ratioactivity counted using a TopCount Microplate Scintillation Counter (Packard Instrument Company).

mouse TAAR1 = mouse TAAR1 (Mus musculus (Mouse), UniProt Q923Y8); test: Radioligand binding assay on mouse TAAR1; conditions: for Ki: mouse TAAR1, HEK-293 membranes, first value of the pair (before the slash), read-out: Ki (μM) mouse/rat
Protocol: as §1, §2
Radioligand Binding Assay on Mouse TAAR1
as §3
as §4, with “expressing mouse” for “expressing rat”

Sequence of rat TAAR1 (Q923Y9 whole entry): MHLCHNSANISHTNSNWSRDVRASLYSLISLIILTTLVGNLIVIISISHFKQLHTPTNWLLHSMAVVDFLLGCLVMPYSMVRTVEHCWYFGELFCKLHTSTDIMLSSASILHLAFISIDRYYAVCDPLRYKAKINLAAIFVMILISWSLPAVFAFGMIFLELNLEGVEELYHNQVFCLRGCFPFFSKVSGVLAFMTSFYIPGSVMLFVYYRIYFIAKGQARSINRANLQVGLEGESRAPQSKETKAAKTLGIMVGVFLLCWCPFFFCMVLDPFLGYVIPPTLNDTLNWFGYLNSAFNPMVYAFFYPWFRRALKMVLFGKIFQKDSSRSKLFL
Sequence of mouse TAAR1 (Q923Y8 whole entry): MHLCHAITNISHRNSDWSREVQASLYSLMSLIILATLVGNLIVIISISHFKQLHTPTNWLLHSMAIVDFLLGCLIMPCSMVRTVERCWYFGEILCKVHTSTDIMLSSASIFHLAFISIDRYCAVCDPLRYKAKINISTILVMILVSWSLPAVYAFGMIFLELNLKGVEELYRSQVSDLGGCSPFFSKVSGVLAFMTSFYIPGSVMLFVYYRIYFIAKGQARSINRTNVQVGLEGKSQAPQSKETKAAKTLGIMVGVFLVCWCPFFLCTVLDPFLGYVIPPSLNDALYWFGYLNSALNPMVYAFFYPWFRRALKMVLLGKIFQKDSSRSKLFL

Row | Structure (SMILES) | Ki (rat TAAR1) | Ki (mouse TAAR1) | Kd (rat TAAR1; rat TAAR1 membranes, saturation curve, usual value, read-out: dissociation constant (Kd) of the radioligand) | Kd (mouse TAAR1; mouse TAAR1 membranes, saturation curve, usual value, read-out: dissociation constant (Kd) of the radioligand)
1 | O=C(Nc1ccc([C@@H]2CNCCO2)c(Cl)c1)c1cnn(-c2ccc(OC(F)F)cc2)c1 [Example 93, (R)—N-(3-Chloro-4-(morpholin-2-yl)phenyl)-1-(4-(difluoromethoxy)phenyl)-1H-pyrazole-4-carboxamide hydrochloride] | 0.0012 µM | 0.0005 µM | – | –
2 | COc1cc(C(=O)Nc2ccc([C@H]3CNCCO3)cc2F)cc(C#N)n1 [Example 121, (S)-2-Cyano-N-(2-fluoro-4-(morpholin-2-yl)phenyl)-6-methoxyisonicotinamide hydrochloride] | 0.0158 µM | 0.0145 µM | – | –
3 | COc1cc(C(=O)Nc2ccc([C@H]3CNCCO3)cc2Cl)cc(C#N)n1 [Example 124, (S)—N-(2-Chloro-4-(morpholin-2-yl)phenyl)-2-cyano-6-methoxyisonicotinamide hydrochloride] | 0.0231 µM | 0.0235 µM | – | –
4 | O=C(Nc1ccc([C@H]2CNCCO2)c(F)c1)c1cnn(-c2ccc(C(F)(F)F)nc2)c1 [Example 130, (S)—N-(3-Fluoro-4-(morpholin-2-yl)phenyl)-1-(6-(trifluoromethyl)pyridin-3-yl)-1H-pyrazole-4-carboxamide hydrochloride] | 0.0038 µM | 0.0075 µM | – | –
5 | CCOc1cc(C(=O)Nc2ccc([C@@H]3CNCCO3)c(Cl)c2)ccn1 [Example 91, (R)—N-(3-Chloro-4-(morpholin-2-yl)phenyl)-2-ethoxyisonicotinamide hydrochloride] | 0.003 µM | 0.0053 µM | – | –
6 | N#Cc1ccc(-n2cc(C(=O)Nc3ccc([C@H]4CNCCO4)c(Cl)c3)cn2)cc1 [Example 105, (S)—N-(3-Chloro-4-(morpholin-2-yl)phenyl)-1-(4-cyanophenyl)-1H-pyrazole-4-carboxamide hydrochloride] | 0.0027 µM | 0.0032 µM | – | –
7 | O=C(Nc1ccc([C@H]2CNCCO2)c(F)c1)c1ccnc(C(F)(F)F)c1 [Example 87, (S)—N-(3-Fluoro-4-(morpholin-2-yl)phenyl)-2-(trifluoromethyl)isonicotinamide hydrochloride] | 0.0202 µM | 0.0105 µM | – | –
8 | CCN(C[C@H]1COC(N)=N1)c1ccccc1 [^3[H]-(S)-4-[(ethyl-phenyl-amino)-methyl]-4,5-dihydro-oxazol-2-ylamine, reference compound] | – | – | ~2.3 nM | ~0.7 nM
9 | COc1ccc(C#N)cc1NC(=O)Nc1ccc([C@H]2CNCCO2)cc1F [Example 39, (S)-1-(5-Cyano-2-methoxyphenyl)-3-(2-fluoro-4-(morpholin-2-yl)phenyl)urea hydrochloride] | 0.0085 µM | 0.003 µM | – | –
10 | N#Cc1ccc(F)c(NC(=O)Nc2ccc([C@@H]3CNCCO3)cc2F)c1 [Example 56, 1-(5-Cyano-2-fluoro-phenyl)-3-((R)-2-fluoro-4-morpholin-2-yl-phenyl)-urea] | 0.0035 µM | 0.002 µM | – | –
11 | O=C(Nc1cnc(C(F)(F)F)nc1)Nc1ccc([C@@H]2CNCCO2)cc1Br [Example 70, 1-((R)-2-Bromo-4-morpholin-2-yl-phenyl)-3-(2-trifluoromethyl-pyrimidin-5-yl)-urea] | 0.0103 µM | 0.0056 µM | – | –
12 | Cc1cc(C(=O)Nc2ccc([C@H]3CNCCO3)cc2Cl)cc(C#N)n1 [Example 123, (S)—N-(2-Chloro-4-(morpholin-2-yl)phenyl)-2-cyano-6-methylisonicotinamide hydrochloride] | 0.0474 µM | 0.0413 µM | – | –
13 | O=C(Nc1ccc([C@H]2CNCCO2)cc1Cl)c1cnn(-c2cncc(C(F)(F)F)n2)c1 [Example 126, (S)—N-(2-Chloro-4-(morpholin-2-yl)phenyl)-1-(6-(trifluoromethyl)pyrazin-2-yl)-1H-pyrazole-4-carboxamide hydrochloride] | 0.0047 µM | 0.0202 µM | – | –
14 | Cc1nc(C(=O)Nc2ccc([C@H]3CNCCO3)cc2F)ccc1C#N [Example 135, (S)-5-Cyano-N-(2-fluoro-4-(morpholin-2-yl)phenyl)-6-methylpicolinamide hydrochloride] | 0.578 µM | 0.0105 µM | – | –
15 | N#Cc1cc(NC(=O)Nc2ccc([C@H]3CNCCO3)cc2F)ccc1F [Example 27, 1-(3-Cyano-4-fluoro-phenyl)-3-((S)-2-fluoro-4-morpholin-2-yl-phenyl)-urea] | 0.0038 µM | 0.0028 µM | – | –
16 | COc1cc(C(=O)Nc2ccc([C@H]3CNCCO3)c(F)c2)cc(C#N)n1 [Example 107, (S)-2-Cyano-N-(3-fluoro-4-(morpholin-2-yl)phenyl)-6-methoxyisonicotinamide hydrochloride] | 0.0065 µM | 0.0093 µM | – | –
17 | COc1ccc(C#N)cc1NC(=O)Nc1ccc([C@@H]2CNCCO2)cc1Cl [Example 45, (R)-1-(2-Chloro-4-(morpholin-2-yl)phenyl)-3-(5-cyano-2-methoxyphenyl)urea] | 0.0044 µM | 0.0023 µM | – | –
18 | O=C(Nc1ccc(C(F)(F)F)cn1)Nc1ccc([C@@H]2CNCCO2)cc1Cl [Example 54, (R)-1-(2-Chloro-4-(morpholin-2-yl)phenyl)-3-(5-(trifluoromethyl)pyridin-2-yl)urea] | 0.0018 µM | 0.003 µM | – | –
19 | Cc1nc(C(=O)Nc2ccc([C@H]3CNCCO3)c(F)c2)ccc1C#N [Example 136, (S)-5-Cyano-N-(3-fluoro-4-(morpholin-2-yl)phenyl)-6-methylpicolinamide hydrochloride] | 0.0585 µM | 0.0075 µM | – | –
20 | O=C(Nc1ccc([C@H]2CNCCO2)c(Cl)c1)c1cnn(-c2cncc(C(F)(F)F)n2)c1 [Example 128, (S)—N-(3-Chloro-4-(morpholin-2-yl)phenyl)-1-(6-(trifluoromethyl)pyrazin-2-yl)-1H-pyrazole-4-carboxamide hydrochloride] | 0.0025 µM | 0.0088 µM | – | –
21 | O=C(Nc1ccc([C@H]2CNCCO2)cc1F)c1cnn(-c2ccc(F)cc2)c1 [Example 22, (S)—N-(2-fluoro-4-(morpholin-2-yl)phenyl)-1-(4-fluorophenyl)-1H-pyrazole-4-carboxamide] | 0.0036 µM | 0.002 µM | – | –
22 | Cc1cc([C@@H]2CNCCO2)ccc1NC(=O)c1ccc(Cl)nc1 [Example 42, 6-Chloro-N—((R)-2-methyl-4-morpholin-2-yl-phenyl)-nicotinamide] | 3.99 µM | 0.028 µM | – | –
23 | O=C(Nc1ccc([C@H]2CNCCO2)cc1F)c1cnn(-c2cccc(OC(F)F)c2)c1 [Example 75, (S)-1-(3-(Difluoromethoxy)phenyl)-N-(2-fluoro-4-(morpholin-2-yl)phenyl)-1H-pyrazole-4-carboxamide] | 0.0011 µM | 0.0014 µM | – | –
